Data from patent US5776935A, “Pyrido-phtalazin diones and their use against neurological disorders associated with excitotoxicity and malfunctioning of glutamatergic neurotransmission” (Merz & Co. GmbH & Co., priority 1996, dated 1998).
Like-named read-outs stand apart in the source and are kept apart here.

Legend:
[1] = target: T1, glycineB site of the NMDA receptor (rat cortical membranes) (Rattus norvegicus, UniProt P35439); assay: [3H]5,7-DCKA binding assay; settings: 10 nM [3H]5,7-DCKA
T1 construct: The cortex was dissected and homogenised in 20 volumes of ice-cold 0.32M sucrose; from tissue; host or cells: brain cortex membranes of male Sprague-Dawley rats
Experimental: Tissue preparation was performed according to Foster and Wong (1987). Male Sprague-Dawley rats (200-250g) were decapitated and their brains were removed rapidly. The cortex was dissected and homogenised in 20 volumes of ice-cold 0.32M sucrose using a glass-Teflon homogenizer. The homogenate was centrifuged at 1000×g for 10 min. The pellet was discarded and the supernatant centrifuged at 20,000×g for 20 min. The resulting pellet was resuspended in 20 volumes of distilled water and centrifuged for 20 min at 8000×g. Then the supernatant and the buffy coat were centrifuged three times (48,000× g for 20 min) in the presence of 5 mM Tris-HCl, pH 7.4. All centrifugation steps were carried out at 4° C. After resuspension in 5 volumes of 5 mM Tris-HCl, pH 7.4 the membrane suspension was frozen rapidly at -80° C. until the day of assay. On the day of assay the membranes were thawed and washed four times by resuspension in 5 mM Tris-HCl, pH 7.4 and centrifugation at 48,000× g for 20 min. The final pellet was suspended in assay buffer.
The amount of protein in the final membrane preparation was determined according to the method of Lowry (1951) with some modifications (Hartfree, 1972). 50 μl of Protein samples (in triplicates) were diluted to 1 ml with distilled water and treated with 0.9 ml of a solution containing 2 g potassium sodium tartrate and 10 g Na2 CO3 in 500 ml 1N NaOH and 500ml water. Blank and standard (with bovine serum albumin) were set up in the same way. The tubes were placed in a water bath at 50° C. for 10 min. and cooled at room temperature. 100 μl of a solution containing 2 g potassium sodium tartrate and 1 g CuSO4 x 5 H2 O in 90 ml water and 10 ml 1N NaOH were added. The samples were left at room temperature for at least 10 min., then 3 ml of Folin-Ciocalteu reagent (1 ml of reagent diluted with 15 ml water) was added rapidly during mixing. The tubes were again heated at 50° C. for 10 min. and cooled to room temperature. Absorbencies were then read in 1 cm cuvets at 650 nm. The final protein concentration used for our studies was between 100 and 250 μg/ml.
Incubation in both binding assays was terminated using a Millipore filter system. The samples, all in triplicate, were rinsed three times with 2.5 ml ice cold assay buffer over glass fibre filters obtained from Schleicher & Schuell under a constant vacuum. Following separation and rinse the filters were placed into scintillation liquid (5 ml; Ultima Gold) and radioactivity retained on the filters was determined by using conventional liquid scintillation counter (Hewlett Packard, Liquid Scintillation Analyser). `Total binding` was the absolute amount of radioligand bound in the absence of any additives whereas `non-specific` binding was determined in the presence of a high concentration of competitor.
[^3 H]5,7-DCKA binding assay
Experiments were performed according to the methods modified from previous groups (Canton et al., 1991; Yoneda et al., 1993). Membranes were suspended and incubated in 10 mM Tris-HCl, pH 7.4. Incubation time was 45 min at 4° C. Non-specific binding of [^3 H]5,7-DCKA was defined by the addition of unlabeled glycine at 0.1 mM. The stop-solution contained 10 mM Tris-HCl and 10 mM magnesium sulphate, pH 7.4. Filtration was performed as rapidly as possible. Displacement experiments were performed with a fixed [^3 H]5,7-DCKA concentration of 10 nM. Test compounds were diluted in water or DMSO and added in at least 5 different concentrations.

NMDA receptor = target: T2, NMDA receptor (Rattus norvegicus, UniProt P35439); assay: Patch clamp, inward currents to NMDA in cultured superior colliculus neurones; type: cell-based; settings: for IC50 against inward currents to NMDA / IC50: NMDA 200 μM; for voltage-dependence of effect: NMDA currents; for Kb: read-out: Kb (Cheng-Prusoff relationship)
T2 construct: endogenous in cells

[2] = glycine 1 μM, peak currents, read-out: Peak NMDA IC50
[3] = glycine 1 μM, plateau (steady-state) currents, read-out: Plateau NMDA IC50

SMILES	IC50 [1] [µM]	IC50 against inward currents to NMDA (NMDA receptor)	IC50 (NMDA receptor; [2]) [µM]	IC50 (NMDA receptor; [3]) [µM]	voltage-dependence of effect (NMDA receptor)	Kb (NMDA receptor; glycine 1 μM) [µM]	Kb (NMDA receptor; glycine 3 μM) [µM]	Kb (NMDA receptor; glycine 10 μM) [µM]
O=c1[nH]nc(O)c2c1cc1cc(Br)ccc1[n+]2[O-] [Mrz 2/514, 8-bromo-4-hydroxy-1-oxo-1,2-dihydropyridazino[4,5-b]-quinoline 5-oxide]	0.01	most potent	0.5	0.2	–	–	–	–
O=c1[nH][nH]c(=O)c2nc3cc(Cl)c(Cl)cc3cc12 [Mrz 2/515]	0.53	–	3.7	0.9	–	–	–	–
O=c1[nH][nH]c(=O)c2nc3ccc(Cl)cc3cc12 [Mrz 2/501]	0.12	–	2.3	0.7	not voltage-dependent	–	–	–
O=c1[nH]nc(O)c2c1cc1cc(Cl)ccc1[n+]2[O-] [Mrz 2/502, 8-chloro-4-hydroxy-1-oxo-1,2-dihydropyridazino[4,5-b]-quinoline 5-oxide]	0.02	most potent	0.8	0.3	not voltage-dependent	0.08	0.124	0.118
O=c1[nH][nH]c(=O)c2nc3ccc(F)cc3cc12 [Mrz 2/519]	1.1	–	18	5.8	–	–	–	–
O=c1[nH][nH]c(=O)c2nc3ccc(Br)cc3cc12 [Mrz 2/503]	0.25	–	1.7	0.6	–	–	–	–
O=c1[nH]nc(O)c2c1cc1cc(F)ccc1[n+]2[O-] [Mrz 2/516, 8-fluoro-4-hydroxy-1-oxo-1,2-dihydropyridazino[4,5-b]-quinoline 5-oxide]	0.3	–	6.3	1.6	–	–	–	–
